Values after ≈ are worked out from the molar mass of the structure shown.
Experiments:
SH-SY5Y cells = assay: Cell cycle analysis; assay type: cell-based, human
Method: Cells (SH-SY5Y) were seeded in 60-mm petri dishes at a density of 3×10^5. After treatment and subsequent incubation for 24 h at 37° C. and 5% CO2 in humidified atmosphere, harvested cells were washed and fixed overnight with 70% ethanol. Then, ethanol was removed by centrifugation and the cells resuspended in PBS, stained with 50 μg/mL propidium iodide (PI) at 4° C. for 30 min in the dark. Stained cells were analyzed by Tali image based cytometer (Life Technologies, Carlsbad, Calif., USA) counting 20 fields for sample and exported fcs raw data were elaborated by Flowing software (v. 2.5.0, by Perttu Terho, University of Turku, Finland).

U87 cells [1] = assay: Proliferation assay on U87 cells; assay type: cell-based, human
Method: (§1) U87 and U251 cells were purchased from European Collection of Cell Cultures (ECACC, Salisbury, UK) and were cultured in DMEM medium supplemented with 10% Foetal Bovine Serum. In order to determine antiproliferative effect of drugs tumor cells were seeded at 2×10^5 cells/ml density and treated with compounds at indicated concentrations. The cultures were maintained at 37° C. in 5% v/v CO2 for 72 h. Cell number and viability were evaluated by Trypan blue exclusion test. Viable cells were expressed as percentage respect to cells treated with vehicle (=100%). Mean and SD values of at least three different experiments are shown.
(§2) U87 and U251 cells were purchased from European Collection of Cell Cultures (ECACC, Salisbury, UK) and were cultured in DMEM medium supplemented with 10% Foetal Bovine Serum. In order to determine antiproliferative effect of drugs tumor cells were seeded at 2×10^5 cells/ml density and treated with compounds at indicated concentrations. The cultures were maintained at 37° C. in 5% v/v CO2 for 72 h. Cell number and viability were evaluated by Trypan blue exclusion test. Viable cells were expressed as percentage respect to untreated cells (=100%/). Mean and SD values of at least three different experiments are shown.

human fibroblast wi38 = assay: TGF-beta induced myofibroblast differentiation, Western blot; assay type: cell-based; conditions: Si306 1 μM
Method: FIG. 17. Western blot analysis of PDGFR-beta and alpha-SMA expression.
Total cell lysates were obtained by incubating cells in a lysis buffer containing 1% triton, 0.1% SDS, 2 mM CaCl2, 10 mg/ml orthovanadate, and 1× protease inhibitors cocktail (Sigma, St. Louis, […]., USA). Protein content was determined using the Protein Assay Kit 2 (Bio-Rad Laboratories, Hercules, Calif., USA). Sixty micrograms of proteins were electrophoresed in 10% SDS-polyacrylamide gel. After electrophoresis gels were placed onto Trans-Blot Turbo mini nitrocellulose transfer pack and transferred using Trans-Bolt Turbo Transfer System (Bio-Rad Laboratories, Hercules, Calif., USA). The membrane was incubated with 1 μg/ml primary antibody and then with appropriate horseradish peroxidase-conjugated secondary antibodies. Primary antibodies β-actin, PDGFR-beta, alpha-SMA were purchased from Cell Signaling Technology; Protein bands were visualized using a chemiluminescent detection system (Thermo Scientific, Rockford, Ill., USA) and signals were digitally acquired by Chemidoc XRS system (Bio-Rad Laboratories).

[2] = PAMPA, intestinal (GI) permeability; conditions: Membrane Retention, GI
Method: Donor solution (0.5 mM) was prepared by diluting 1 mM dimethylsulfoxide (DMSO) compound stock solution using phosphate buffer (pH 7.4, 0.025 M). […] Donor solution (150 μL) was added to each well of the filter plate. To each well of the acceptor plate were added 300 μL of solution (50% DMSO in phosphate buffer). All compounds were tested in three different plates on different days. The sandwich was incubated for 5 h at room temperature under gentle shaking. After the incubation time, the plates were separated, and samples were taken from both receiver and donor sides and analyzed using LC with UV detection at 280 nm.
Permeability (Papp) for PAMPA was calculated according to the following equation, obtained from Wohnsland and Faller^27 and Sugano et al.^28 equation with some modification in order to obtain permeability values in cm s^−1,
Drug concentration is estimated by using the peak area integration. Membrane retentions (%) were calculated according to the following equation:
where r is the ratio between drug concentration in the acceptor and equilibrium concentration, D, A, and Eq represented drug concentration in the donor, acceptor and equilibrium solution, respectively.
Donor solution of tested compounds (0.5 mM) was prepared by diluting 1 mM dimethylsulfoxide (DMSO) compound stock solution using phosphate buffer (pH 7.4, 25 mM). […] Donor solution (150 μL) was added to each well of the filter plate. To each well of the acceptor plate were added 300 μL of solution (50% DMSO in phosphate buffer). Compounds was tested in three different plates on different days. The sandwich was incubated for 5 h at room temperature under gentle shaking.
Permeability (Papp) for PAMPA was calculated according to the following equation, obtained from Wohnsland and Faller and Sugano et al.^27, 28.
Drug concentration is estimated by using the peak area integration. Membrane retention (%) was calculated according to the following equation:

[3] = system: SH-SY5Y neuroblastoma cells; assay: SH-SY5Y xenograft mouse model; assay type: in vivo, mice
Method: Male CD1 nude mice (Charles River, Milan, Italy) were maintained under the guidelines established by the inventors' Institution (University of L'Aquila, Medical School and Science and Technology School Board Regulations, complying with the Italian government regulation n. 116 Jan. 27 1992 for the use of laboratory animals). Before any invasive manipulation, mice were anesthetized with a mixture of ketamine (25 mg/mL)/xylazine (5 mg/mL). Tumor grafts were obtained by injecting s.c. 1×10^6 SH-SY5Y cells in 100 μL of 12 mg/mL Matrigel (Becton Dickinson, Franklin Lakes, N.J., USA). Tumor growth was monitored daily by measuring the average tumor diameter. The tumor volume was expressed in mm^3 according to the formula 4/3πr^3.

Recombinant human Abl = molecular target: T1, Recombinant human Abl (Homo sapiens, UniProt P00519); assay: Enzymatic assay on isolated Abl; assay type: biochemical; conditions: mean of at least two experiments
T1 construct: purchased Upstate
Method: Recombinant human Abl was purchased from Upstate.
Activity was measured in a filter binding assay using an Abl specific peptide substrate (Abtide, Upstate).

U251 cells = assay: Proliferation assay on U251 cells; assay type: cell-based, human
Method: as §1, §2

hBMEC endothelial cells = assay: Sprouting assay; assay type: cell-based; conditions: 0.5 μM and 1 μM, 24 h
Method: The brain microvascular endothelial cell line hBMEC was purchased from ScienCell Research Laboratory (Carlsbad, Calif., USA). HBMEC cells were suspended in culture medium containing 20% methylcellulose, seeded at a density of 1000 cells/well, into nonadhesive 96 well plate and cultured at 37° C. (5% CO2, 100% humidity). Under these conditions, suspended endothelial cells (EC) form spontaneously within 4 h a single cell aggregate known as spheroid. Spheroids were harvested within 24 h and used for in gel sprouting angiogenesis experiments. Briefly, spheroids were seeded in micro-slides coated with Matrigel and images were observed after 24 h, captured by an inverted microscope and analysed with the NIH Image J analysis system. For statistical analysis, number of sprouts per spheroid, with a minimum of 10 spheroids for each treatment, was considered.

U87 cells [4] = assay: Orthotopic mouse model of GBM; assay type: in vivo, mice; conditions: 50 mg/kg three times per week for 4 weeks
Method: Survival curves (days) of orthotopic mouse model of GBM.
Male CD1 nude mice (Charles River, Milan, Italy) were maintained under the guidelines established by University of L'Aquila, Medical School and Science and Technology School Board Regulations, complying with the Italian government regulations for the use of laboratory animals. Before any invasive manipulation, mice were anesthetized with a mixture of ketamine (25 mg/ml)/xylazine (5 mg/ml). Tumor grafts were obtained by injecting with a Hamilton syringe mounted on a stereotactic instrument, 2*10^3 U87 cells resuspended in 2 microL PBS (David Kopf Instruments, CA, USA). The cells were injected after the exposition of periosteal cranic site and the drimming of a 1 mm diameter hole localized at 4 mm from striatum and with a depth of 4 mm. The wound was treated with antibiotics and was surgically sutured.

PAMPA, BBB permeability = conditions: Membrane Retention, BBB
[5] = In vivo pharmacokinetics / biodistribution; parameters: species or system mice; conditions: administered compound itself, 50 mg/Kg i.p., BALB/C mice
Method: The animal protocols used were reviewed and approved by the Animal Care and Ethics Committee of the Universita{grave over ( )} degli Studi di Siena, Italy. Male BALB/C mice (weight 20-30 g) were obtained from Charles River (Milan, Italy). […] The blood, previously heparinized, was centrifuged at 4000 rpm for 20 minutes to separate the plasma fraction and then 500 μl were collected in a test tube. […] Samples were centrifuged at 4000 rpm for 20 minutes, the supernatant was recovered, dried under vacuum and analyzed by LC-UV-MS. Brain was homogenized using a glass/glass Potter-Elvehjem homogenizer in presence of Tris-HCl buffer (50 mM) and compounds were recovered using 7 mL of ACN then treated as previously described for blood samples.

T1 sequence (P00519 whole entry): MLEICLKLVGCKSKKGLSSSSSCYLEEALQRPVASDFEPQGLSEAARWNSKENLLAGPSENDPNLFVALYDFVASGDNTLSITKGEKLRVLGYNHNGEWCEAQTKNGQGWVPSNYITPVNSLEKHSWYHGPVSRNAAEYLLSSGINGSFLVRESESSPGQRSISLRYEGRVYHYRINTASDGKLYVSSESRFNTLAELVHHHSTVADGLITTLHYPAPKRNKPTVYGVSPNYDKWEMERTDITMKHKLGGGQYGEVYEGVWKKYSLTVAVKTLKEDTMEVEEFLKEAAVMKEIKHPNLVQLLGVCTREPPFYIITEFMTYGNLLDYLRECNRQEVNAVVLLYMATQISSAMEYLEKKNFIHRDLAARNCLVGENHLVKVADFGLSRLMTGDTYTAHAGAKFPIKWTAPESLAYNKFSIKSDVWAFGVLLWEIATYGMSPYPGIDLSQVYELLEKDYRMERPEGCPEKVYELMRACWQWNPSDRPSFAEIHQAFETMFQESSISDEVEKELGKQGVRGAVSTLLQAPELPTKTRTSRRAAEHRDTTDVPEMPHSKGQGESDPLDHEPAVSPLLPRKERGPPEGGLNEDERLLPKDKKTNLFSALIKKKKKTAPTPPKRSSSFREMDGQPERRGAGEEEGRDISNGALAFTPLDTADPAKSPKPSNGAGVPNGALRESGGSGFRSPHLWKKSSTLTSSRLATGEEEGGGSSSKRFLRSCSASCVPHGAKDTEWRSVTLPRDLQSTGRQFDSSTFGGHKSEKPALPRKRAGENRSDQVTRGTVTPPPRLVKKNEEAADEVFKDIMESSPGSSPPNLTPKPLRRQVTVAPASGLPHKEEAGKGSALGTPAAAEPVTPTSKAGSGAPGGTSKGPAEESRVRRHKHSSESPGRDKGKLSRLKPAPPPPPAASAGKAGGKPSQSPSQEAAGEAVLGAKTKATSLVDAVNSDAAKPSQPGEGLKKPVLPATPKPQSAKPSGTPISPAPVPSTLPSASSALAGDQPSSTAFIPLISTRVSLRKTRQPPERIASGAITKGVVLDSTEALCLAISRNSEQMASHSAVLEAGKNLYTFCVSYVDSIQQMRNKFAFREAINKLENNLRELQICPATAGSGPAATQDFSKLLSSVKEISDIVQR
Method for Water solubility assay: Each solid compound (1 mg) was added to 1 mL of water. […] The suspensions were filtered through a 0.45 μm nylon filter (Acrodisc), and the solubilized compound determined by LC-MS-MS assay. For each compound the determination was performed in triplicate. […] The flow rate was 0.2 mL min-^−1 and injection volume was 5 μL. The instrument operated in positive mode and parameters were: detector 1850 V, drying gas pressure 25.0 psi, desolvation temperature 300.0° C., nebulizing gas 40.0 psi, needle 5000 V and shield 600 V. Nitrogen was used as nebulizer gas and drying gas.
Solid compound (1 mg) was added to 1 mL of water. […] The suspensions were filtered through a 0.45-μm nylon filter (Acrodisc), and the solubilised compound determined by LC-UV-MS assay. The determination was performed in triplicate.
Chromatographic analysis was performed with the method above reported and quantification of compounds was made by comparison with apposite calibration curves realized with standard solutions in methanol.

## ClC(Cn1ncc2c(Nc3cccc(Br)c3)nc(SCCN3CCOCC3)nc21)c1ccccc1 (stereo not shown) [Si306, N-(3-Bromophenyl)-1-(2-chloro-2-phenylethyl)-6-[(2-morpholin-4-ylethyl)thio]-1H-pyrazolo[3,4-d]pyrimidin-4-amine]
SH-SY5Y cells; 10 μM
  apoptosis, treated cells: about 50%
SH-SY5Y cells; 0.1-10 μM, starting from 0.1 μM
  accumulation of cells in the G1 phase of cell cycle: significant and dose-dependent accumulation
U87 cells [1]; U87, 5 μM, 72 h
  reduction of the total cell number vs control: about 50%
U87 cells [1]; U87, 30 μM, 72 h
  dead cells: more than 80%
U87 cells [1]; U87, 72 h, 1 μM Si306 plus increasing mitomycin C
  antiproliferative effect in combination with mitomycin C: synergic antiproliferative effect
Human fibroblast wi38
  expression of PDGFR and alpha-SMA downstream of TGF-beta: able to block the expression of PDGFR and alpha-SMA
[2]
  PAMPA GI (MR %): (46.1) %
Water solubility assay; Table 6
  H2O Solubility: 3.7 µg/mL
Water solubility assay; Table 8, 20° C., 24 h
  H2O Sol.: 3.70 µg/mL
Water solubility assay; water, 20 °C, thermodynamic from solid
  solubility at 24 h: 6.61 µM (≈ 3.79 µg/mL)
[3]; 50 mg/kg
  tumour growth inhibition: significantly inhibited
[3]; 50 mg/kg daily oral
  signs of distress or weight loss: did not shown signs of distress or weight loss
[3]; 50 mg/kg daily oral, 60 days
  reduction in mean tumor volume compared to placebo: more than 50%
Recombinant human Abl
  Ki: 0.12 µM
U251 cells; U251, 5 μM, 72 h
  reduction of the total cell number vs control: about 50%
U251 cells; U251, 72 h, 1 μM Si306 plus increasing mitomycin C
  antiproliferative effect in combination with mitomycin C: synergic antiproliferative effect
hBMEC endothelial cells
  angiogenesis, number of sprouts per spheroid: significant reduction of angiogenesis
U87 cells [4]
  survival of mice respect to control group: significant ability in prolonging survival
PAMPA, BBB permeability
  PAMPA BBB (MR %): (41.0) %
[5]; 30′
  Quantity of Compound, BLOOD: 10.2 ± 4.82 nmol of compound/g of tissue
[5]; 4 h
  Quantity of Compound, BLOOD: 2.6 ± 1.31 nmol of compound/g of tissue
[5]; 8 h
  Quantity of Compound, BLOOD: 2.4 ± 0.29 nmol of compound/g of tissue
[5]; 24 h
  Quantity of Compound, BLOOD: 1.1 ± 0.65 nmol of compound/g of tissue
  Quantity of Compound, BRAIN: 2.3 ± 0.70 nmol of compound/g of tissue
[5]; 15′
  Quantity of Compound, BRAIN: 0.3 ± 0.18 nmol of compound/g of tissue

From patent publication US20180186796A1, “COMPOUNDS AND USES THEREOF” (LEAD DISCOVERY SIENA S.R.L., priority 2014, published 2018)
